Data from patent publication US20240181089A1, “PHARMACEUTICAL POLYMER CONJUGATES” (priority 2021, published 2024).

Experiments:
[1] = tested on: folate receptor (FR) isoforms FR-α and FR-β; settings: Vaitilingam et al.; cited from earlier work
[2] = tested on: 4T1 murine triple negative breast cancer cell line; type: cell-based; settings: 24 h treatment, LDH release, 4T1 cells, expressed in zinc concentration
Protocol: 24 h in vitro cytotoxicity was tested for each compound against 4T1 murine triple negative breast cancer cell line in obtaining their IC5024h values using lactate dehydrogenase release assay (LDH assay), which were expressed in zinc concentration (μM Zn) units for comparative viewing.

4T1 cells [3] = assay: Apoptosis-necrosis flow cytometry with annexinV (A5) and propidium iodide (PI); type: cell-based, murine
4T1 cells [4] = assay: Confocal microscopy mode-of-action test (cell detachment, anti-AIF, TUNEL, Hoechst) with or without PJ34; type: cell-based, murine; settings: 1.5 h treatment
From the text: In addition to the cytotoxicity featuring the simultaneous uptake of PI and A5, Fatokun et al. previously defined PARP-dependent nuclear translocation of AIF and subsequent generation of massive DNA breaks as the hallmark features of parthanatos (Parthanatos: mitochondrial-linked mechanisms and therapeutic opportunities. British journal of pharmacology 171, 2000-2016 (2014)). To investigate whether the observed PI+A5 + necrotic 4T1 cell deaths by the zinc compounds (FIG. 5B and 5C) accompanied these features, we performed confocal microscopy studies after 1.5 h treatment for assessing the occurrence of PARP-dependent cytotoxicity, nuclear AIF translocation, and DNA breaks using fluorescent probes of anti-AIF, TUNEL, and Hoechst 33342 (Hoechst) DNA stain upon co-incubation with a potent PARP1 and PARP2 inhibitor PJ34. Assessment of PAR-polymer content, however, could not be incorporated into this experiment due to unavailability of sufficiently sensitive fluorescent probe for PAR-polymer during this study. Also, any longer treatment time could not be applied to this experiment due to extensive cytotoxic changes observed in the C010DS-Zn treated groups.

cancer cell lines = settings: NPL6; cited from earlier work
[5] = concentration-resolved study after 3 h treatment

## CN(CC1CNc2nc(N)[nH]c(=O)c2N1C)c1ccc(C(=O)N[C@@H](CCC(=O)O)C(=O)O)cc1 (some centres unmarked) [DMTHF, N^5, N^10-dimethyl tetrahydrofolate]
[1]
  folate receptor isoform preference: higher affinity for FR-α over FR-β

## O=S(=O)([O-])[O-].[Zn+2] [zinc sulfate]
[2]
  IC50: 80.7 µM
4T1 cells [3]; [5]
  A5+ only apoptotic cell deaths: without notable increases
  proportion of PI+ only necrosis: 18%
  proportion of PI+A5+ necrosis: 4%
4T1 cells [3]; concentration-resolved study after 3 h treatment, maximum
  PI+ only or PI+A5+ necrotic cell death: ≤ 26%
4T1 cells [3]; time resolved study, 450 μM Zn
  time after treatment at which mainly PI+A5+ and minor PI+ only necrotic cell death was induced: 1.5 h
4T1 cells [4]
  nuclear AIF translocation and DNA damages (TUNEL): failed to elicit significantly higher nuclear AIF translocation nor the DNA damages
4T1 cells [4]; all concentrations tested
  cell detachment: did not cause marked cell detachment

## zinc pyrithione [ZnPyr2]
Cancer cell lines
  PARP cleavage: complete PARP cleavage
  mode of cell death: induced apoptosis in cancer cell lines
